Where a name gives a salt, the structure may show the parent alone. Read-outs that look alike come from different tables or passages of the source.
Experiments:
rats [1] = experiment: Seven-day dose-range finding study in rats; assay type: in vivo, rat; settings: seven days
SW-620 (Colon) = experiment: Neutral red cytotoxicity assay, SW-620; assay type: cell-based, human; settings: free base, five days
Description: (§1) Compound I's activity is not confined to activity against colon cancer cell lines or animal models of colon cancer. It has a broad range of anti-neoplastic effects in various neoplastic cell lines. Various types of human cancer cell lines were propagated under sterile conditions in RPMI 1640 medium with 10% fetal bovine serum, 2 mM L-glutamine and sodium bicarbonate. To determine growth inhibitory effects of Compound I, cells were seeded in 96-well plates at a density of 1000 cells per well. Twenty-four hours after plating, the cells were dosed with various concentrations of the free base of Compound I solubilized in DMSO (final concentration 0.1%). The effect of the drug on tumor cell growth was determined using the neutral red cytotoxicity assay following five days of continuous treatment. Neutral red is a dye that is selectively taken up by viable cells by an ATP-dependent transport mechanism.

NCI-H82 (Lung) = experiment: Neutral red cytotoxicity assay, NCI-H82; assay type: cell-based, human; settings: free base, five days
Description: as §1

DU145 (Prostate) = experiment: Neutral red cytotoxicity assay, DU145; assay type: cell-based, human; settings: free base, five days
Description: as §1

HT-29 (Colon) = experiment: Neutral red cytotoxicity assay, HT-29; assay type: cell-based, human; settings: free base, five days
Description: as §1

Colo 205 (Colon) = experiment: Neutral red cytotoxicity assay, Colo 205; assay type: cell-based, human; settings: free base, five days
Description: as §1

[2] = Acute toxicity study in rats; settings: rat, in vivo
[3] = tested on: azoxymethane-induced aberrant crypt foci in male Fisher 344 rats; experiment: Azoxymethane-induced aberrant crypt foci (ACF) model; assay type: in vivo; settings: in the rat chow
Description: The growth inhibition IC50 value obtained for Compound I was 0.7 μM in the SW-480 cell line. […] This established rodent model of azoxymethane (“AOM”)-induced carcinogenesis was used to assess the effects of Compound I (free base and salt) on colon cancer development in vivo. ACF are precursors to colonic tumors, and ACF inhibition is predictive of chemo-preventive efficacy.
In the rats in this experiment, ACF initiation was achieved by two consecutive weekly injections of the carcinogen. Compound I was administered one week prior to ACF initiation and for the duration of the experiment. ACFs were scored after 5 weeks of treatment. Compound I was administered orally to male Fisher 344 rats in the rat chow. Daily food consumption (mg/kg body weight) varied over the course of the study, and therefore Compound I dose was expressed a grams per kg of diet to provide a basis of comparison between doses. […] The experimental groups gained less weight than the controls, which was indicative of bioavailability. However, the weight differences were less than 10% and not considered to affect ACF formation.
The free base of Compound I inhibited ACF formation as measured by a reduction of crypts per colon. […]

dogs = settings: dog, in vivo
rats [4] = experiment: 28-day study in rats; assay type: in vivo, rat
rats [5] = settings: rat, in vivo
NCI-H23 (Lung) = experiment: Neutral red cytotoxicity assay, NCI-H23; assay type: cell-based, human; settings: free base, five days
Description: as §1

NCI-H460 (Lung) = experiment: Neutral red cytotoxicity assay, NCI-H460; assay type: cell-based, human; settings: free base, five days
Description: as §1

[6] = tested on: LNCaP prostate tumor cell line; experiment: Histone-associated DNA fragmentation in LNCaP; assay type: cell-based; settings: 50 μM free base, up to 4 days
Description: (§2) The androgen-sensitive prostate tumor cell line, LNCaP (from ATCC (Rockville, Md.)) was propogated under standard conditions using […] medium containing 5% fetal calve serum and 2 mM glutamine. Primary prostate epithelial cell cultures (PrEC) derived from normal prostate (from Clonetics Inc. (San Diego, Calif.)) were grown under the same conditions as the tumor cell line except a serum-free medium optimized for the growth of such cultures was used (Clonetics Inc). For the experiments, LNCaP or PrEC cells were seeded in 96 well plates at a density of 10,000 cells per well. After 24 hours, the cells were treated with either vehicle (0.1% DMSO) or 50 μM Compound I (free base) solubilized in DMSO. After various drug treatment times (4, 24, 48, 72, or 99 hours) the cells were lysed and processed for measurement of histone-associated DNA as an indicator of apoptotic cell death (see, Piazza et al., Cancer Research 57: 2452-2459, 1997).

HCT-15 (Colon) = experiment: Neutral red cytotoxicity assay, HCT-15; assay type: cell-based, human; settings: free base, five days
Description: as §1

[7] = Acute and seven-dose toxicity in dogs; settings: both, dog, in vivo, po, 1000 mg/kg
patients = experiment: Single, escalating dose human clinical safety study; assay type: in vivo; settings: oral
[8] = tested on: PrEC primary prostate epithelial cells from normal prostate; experiment: Histone-associated DNA fragmentation in PrEC; assay type: cell-based; settings: 50 μM, up to 4 days
Description: as §2

MDA-MB-435 (Breast) = experiment: Neutral red cytotoxicity assay, MDA-MB-435; assay type: cell-based, human; settings: free base, five days
Description: as §1

UISO-BCA-1 (Breast) = experiment: Neutral red cytotoxicity assay, UISO-BCA-1; assay type: cell-based, human; settings: free base, five days
Description: as §1

CC1=C(CC(=O)NCc2ccccc2)c2cc(F)ccc2/C1=C\c1ccncc1 [Compound I, (Z)-5-fluoro-2-methyl-(4-pyridylidene)-3-(N-benzyl)indenylacetamide hydrochloride]
signs of toxicity (rats [1]; 50 mg/kg/day): no observable signs of toxicity
treatment-related effects (rats [1]; 500 mg/kg/day): increase in absolute and relative liver weights in female rats
treatment-related effects (rats [1]; 2000 mg/kg/day): labored breathing and/or abnormal respiratory sounds, decreased weights gains and food consumption in male rats, and increased liver weights in female rats
GI90 (SW-620 (Colon)): 2500 nM
GI90 (NCI-H82 (Lung)): 5800 nM
GI90 (DU145 (Prostate)): 2800 nM
GI90 (HT-29 (Colon)): 8000 nM
GI90 (Colo 205 (Colon)): 2400 nM
LD50 ([2]; ip, 1000 mg/kg): > 1000 mg/kg
LD50 ([2]; po): > 4000 mg/kg
body weight difference to controls [3]: less than 10%
signs of toxicity (dogs; 1000 mg/kg): no signs of toxicity
drug-related effects (dogs; 1000 mg/kg/day): At no time in either dosing phase were any obvious signs of drug-related effects observed
organ weights (rats [4]; 28 days, 2000 mg/kg/day): statistically significant increase in liver weights
clinical observations (rats [4]; 28 days, 50, 500 and 2000 mg/kg/day): no abnormal clinical observations
body weight gain (rats [5]; ip, 1000 mg/kg): reduced body weight gain
body weight gain (rats [5]; po, 4000 mg/kg): body weight gains were slightly reduced
GI90 (NCI-H23 (Lung)): 2500 nM
GI90 (NCI-H460 (Lung)): 30000 nM
histone-associated fragmented DNA [6]: time-dependent increase
GI90 (HCT-15 (Colon)): 3000 nM
LD50 [7]: > 1000 mg/kg
side effects (patients): no significant side effects at any dose
DNA fragmentation [8]: did not affect DNA fragmentation
GI90 (MDA-MB-435 (Breast)): 2300 nM
GI90 (UISO-BCA-1 (Breast)): 4700 nM

Reference: patent US6500610B1, “Methods for identifying compounds for inhibiting of neoplastic lesions, and pharmaceutical compositions containing such compounds” (Cell Pathways, INC, priority 1997, dated 2002)
